For 25 compounds, IC50, Ki and inhibition results are on record in patent publication US7998965B2, “Glutamate aggrecanase inhibitors” (Wyeth LLC, priority 2005, dated 2011).

By IC50 is commonly meant the concentration that gives 50% inhibition. One may read the Ki as a measure of affinity in units of concentration, obtained from inhibition or displacement.

SMILES strings stand for the structures. Read-outs that look alike come from different tables or passages of the source.

Experiment [1] concerns the target T1, purified recombinant human Aggrecanase-2 (Ag2t-Phe628-Strep) (Homo sapiens, UniProt Q9UNA0).
T1 construct: the form used is denoted as Ag2t-Phe628-Strep (MW=41,737)
T1 sequence (Q9UNA0 262-628): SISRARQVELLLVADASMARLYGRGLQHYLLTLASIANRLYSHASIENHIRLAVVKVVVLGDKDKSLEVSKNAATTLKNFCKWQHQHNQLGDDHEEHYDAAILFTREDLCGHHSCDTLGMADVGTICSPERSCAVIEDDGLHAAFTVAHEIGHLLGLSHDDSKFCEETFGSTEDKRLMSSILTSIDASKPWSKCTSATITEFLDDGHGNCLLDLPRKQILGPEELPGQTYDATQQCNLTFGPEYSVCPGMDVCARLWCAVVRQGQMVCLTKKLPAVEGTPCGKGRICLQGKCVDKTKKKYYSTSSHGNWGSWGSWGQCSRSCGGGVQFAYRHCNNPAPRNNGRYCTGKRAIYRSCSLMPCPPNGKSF
Nature of the experiment: In vitro fluorescence screen for Aggrecanase-2 inhibitors. It is filed as biochemical. The note with it: for IC50: read-out: Agg 2 IC50.

The target in experiment [2] is T2, purified recombinant human Aggrecanase-1 (rAgg1) (Homo sapiens, UniProt O75173).
T2 sequence (O75173 213-837): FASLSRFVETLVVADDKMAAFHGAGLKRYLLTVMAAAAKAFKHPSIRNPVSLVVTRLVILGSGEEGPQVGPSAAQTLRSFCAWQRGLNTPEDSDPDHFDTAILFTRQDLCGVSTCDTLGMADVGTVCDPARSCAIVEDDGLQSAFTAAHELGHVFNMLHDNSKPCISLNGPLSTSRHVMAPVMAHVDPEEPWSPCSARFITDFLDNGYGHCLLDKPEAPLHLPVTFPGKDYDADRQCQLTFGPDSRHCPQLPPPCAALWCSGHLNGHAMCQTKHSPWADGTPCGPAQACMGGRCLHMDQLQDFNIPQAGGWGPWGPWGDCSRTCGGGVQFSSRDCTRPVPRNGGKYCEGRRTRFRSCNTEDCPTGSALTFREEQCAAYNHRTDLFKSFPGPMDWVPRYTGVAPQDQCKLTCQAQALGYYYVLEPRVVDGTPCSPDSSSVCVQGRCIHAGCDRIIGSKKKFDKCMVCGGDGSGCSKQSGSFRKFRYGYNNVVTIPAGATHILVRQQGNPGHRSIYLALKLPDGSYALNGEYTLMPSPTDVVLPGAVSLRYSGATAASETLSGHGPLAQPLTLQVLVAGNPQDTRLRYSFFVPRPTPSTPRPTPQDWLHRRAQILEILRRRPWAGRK
Nature of the experiment: In vitro fluorescence screen for Aggrecanase-1 inhibitors. It is filed as biochemical. The following applies: for IC50: read-out: Agg1 IC50.

As to `CC(C)(Cc1ccc(F)cc1)NC(=O)[C@H](CCC(N)=O)NC(=O)c1ccc(-c2ccccc2)cc1` [Example 8LLLLLL, N^2-(biphenyl-4-ylcarbonyl)-N^1-[2-(4-fluorophenyl)-1,1-dimethylethyl]-L-α-glutamamide], the IC50 in experiment [1] (Table 2) is over 100000 nM; in experiment [2] (Table 2), over 25000 nM.

Consider `COc1cc(CNC(=O)[C@H](CCC(=O)O)NC(=O)c2ccc(-c3ccc(CO)cc3)cc2)cc(OC)c1OC` [Example 8LLLLLLL, N^2-{[4′-(hydroxymethyl)biphenyl-4-yl]carbonyl}-N-(3,4,5-trimethoxybenzyl)-L-α-glutamine], for which the values for the IC50 in experiment [1] (Table 3) and in experiment [2] (Table 3) were 3380 nM and 228 nM, respectively.

As to `CCC(C)(C)NC(=O)[C@H](CCC(=O)O)NC(=O)c1ccc(-c2ccccc2)cc1` [Example 8MM, N^2-(biphenyl-4-ylcarbonyl)-N^1-(1,1-dimethylpropyl)-L-α-glutamine], the results for the IC50 in experiment [1] (Table 1) and in experiment [2] (Table 1) were 980 nM and 58 nM, respectively. Also, the Ki in experiment [2] (Table 1, enzyme not given, column follows Agg1 IC50, read-out: Ki) came to 126 nM.

As for `O=C(O)CC[C@H](NC(=O)c1ccc(-c2ccccc2)cc1)C(=O)NCCc1cccc(Br)c1` [Example 8MMM, N^2-(biphenyl-4-ylcarbonyl)-N^1-[2-(3-bromophenyl)ethyl]-L-α-glutamine], the IC50 in experiment [1] (Table 1) worked out at 500 nM; in experiment [2] (Table 1), 40 nM.

As to `CC(C)(NC(=O)[C@H](CCC(=O)O)NC(=O)c1ccc2c(c1)C(=O)c1ccccc1-2)c1ccccc1` [Example 8MMMMM, N^1-(1-methyl-1-phenylethyl)-N^2-[(9-oxo-9H-fluoren-2-yl)carbonyl]-L-α-glutamine], the IC50 in experiment [1] (Table 2) was about 22000 nM; in experiment [2] (Table 2) it was 20000 nM.

For `O=C(O)CC[C@H](NC(=O)c1ccc(-c2ccccc2)cc1)C(=O)N[C@H](CO)Cc1ccccc1` [Example 8MMMMMM, N-[(1S)-1-benzyl-2-hydroxyethyl]-N^2-(biphenyl-4-ylcarbonyl)-L-α-glutamine], the IC50 in experiment [1] (Table 2) stood at 5100 nM; in experiment [2] (Table 2), 550 nM.

`COc1cc(CNC(=O)[C@H](CCC(=O)O)NC(=O)c2ccc(-c3ccc(CBr)cc3)cc2)cc(OC)c1OC` [Example 8MMMMMMM, N^2-{[4′-(bromomethyl)biphenyl-4-yl]carbonyl}-N-(3,4,5-trimethoxybenzyl)-L-α-glutamine]: the 50% inhibitory concentration (IC50) came to 614 nM in experiment [1] (Table 3) and 198 nM in experiment [2] (Table 3).

As for `CC(C)(NC(=O)[C@H](CCC(=O)O)NC(=O)C1c2ccccc2-c2ccccc21)c1ccccc1` [Example 8NNNNN, N^2-(9H-fluoren-9-ylcarbonyl)-N^1-(1-methyl-1-phenylethyl)-L-α-glutamine], the results for the IC50 in experiment [1] (Table 2) and in experiment [2] (Table 2) were 1890 nM and 1200 nM, respectively.

`O=C(O)CC[C@H](NC(=O)c1ccc(-c2ccccc2)cc1)C(=O)NCCC(c1ccccc1)c1ccccc1` [Example 8OOO, N^2-(biphenyl-4-ylcarbonyl)-N^1-(3,3-diphenylpropyl)-L-α-glutamine]: the IC50 in experiment [1] (Table 1) turned out to be 1000 nM; in experiment [2] (Table 1), 280 nM.

With `CC(C)(NC(=O)[C@H](CCC(=O)O)NC(=O)c1cccc(Oc2ccccc2)c1)c1ccccc1` [Example 8OOOOO, N^1-(1-methyl-1-phenylethyl)-N^2-(3-phenoxybenzoyl)-L-α-glutamine], the IC50 was over 200000 nM in experiment [1] (Table 2) and over 50000 nM in experiment [2] (Table 2).

Take `CC(C)(Cc1ccc(F)cc1)NC(=O)[C@H](CCC(=O)O)NC(=O)c1ccc(-c2ccco2)cc1` [Example 8OOOOOOO, N-[2-(4-fluorophenyl)-1,1-dimethylethyl]-N^2-[4-(2-furyl)benzoyl]-L-α-glutamine]: the 50% inhibitory concentration (IC50) in experiment [1] (Table 3) is 100 to 400 nM; in experiment [2] (Table 3) it was under 30 nM.

`CC(C)(Cc1ccccc1)NC(=O)[C@H](CCC(=O)O)NC(=O)c1ccc(-c2ccccc2)s1` [Example 8OOOOOOOO, N-(1,1-dimethyl-2-phenylethyl)-N^2-[(5-phenyl-2-thienyl)carbonyl]-L-α-glutamine]: the values for the 50% inhibitory concentration (IC50) in experiment [1] (Table 3) and in experiment [2] (Table 3) were 200 to 600 nM and under 30 nM, respectively.

For the compound `C[C@H](NC(=O)[C@H](CCC(=O)O)NC(=O)c1ccc(-c2ccccc2)cc1)c1ccccc1` [Example 8PPPPP, N^2-(biphenyl-4-ylcarbonyl)-N^1-[(1S)-1-phenylethyl]-L-α-glutamine], the half-inhibitory concentration (IC50) in experiment [1] (Table 2) was 2970 nM; in experiment [2] (Table 2), 157 nM.

With `Cc1cccc(CNC(=O)[C@H](CCC(=O)O)NC(=O)c2ccc(-c3ccc(CO)cc3)cc2)c1` [Example 8PPPPPPP, N^2-{[4′-(hydroxymethyl)biphenyl-4-yl]carbonyl}-N-(3-methylbenzyl)-L-α-glutamine], in experiment [1] (Table 3, at 16700 (nM), read-out: Agg 2 % at concentration), the inhibition at 16.7 µM was 48%. Moreover, the IC50 in experiment [2] (Table 3) was determined as 3120 nM.

For `C[C@H](NC(=O)[C@H](CCC(=O)O)NC(=O)c1ccc2c(c1)Cc1ccccc1-2)c1ccccc1` [Example 8QQQQQ, N^2-(9H-fluoren-2-ylcarbonyl)-N^1-[(1S)-1-phenylethyl]-L-α-glutamine], the IC50 in experiment [1] (Table 2) worked out at 1160 nM; in experiment [2] (Table 2), 108 nM.

As for `CCCCCNC(=O)[C@H](CCC(=O)O)NC(=O)c1ccc(-c2ccccc2)cc1` [Example 8RRR, N^2-(biphenyl-4-ylcarbonyl)-N^1-pentyl-L-α-glutamine], the IC50 was 680 nM in experiment [1] (Table 1) and 82 nM in experiment [2] (Table 1).

With `C[C@H](NC(=O)[C@H](CCC(=O)O)NC(=O)c1ccc(-c2ccccc2)cc1)c1ccc(F)cc1` [Example 8RRRRR, N^2-(biphenyl-4-ylcarbonyl)-N1-[(1S)-1-(4-fluorophenyl)ethyl]-L-α-glutamine], the concentration for half-maximal inhibition (IC50) in experiment [1] (Table 2) turned out to be 2900 nM; in experiment [2] (Table 2), 129 nM.

In the case of `CC(C)(Cc1ccc(F)cc1)NC(=O)[C@H](CCC(=O)O)NC(=O)c1ccc(-c2ccc3c(c2)CCO3)cc1` [Example 8RRRRRRR, N^2-[4-(2,3-dihydro-1-benzofuran-5-yl)benzoyl]-N-[2-(4-fluorophenyl)-1,1-dimethylethyl]-L-α-glutamine], in experiment [1] (read-out: Agg 2 % at concentration), the inhibition at 1.2 µM was determined as 48%. Moreover, the IC50 in experiment [2] (Table 3) lay within 70 to 210 nM.

On to `CC(NC(=O)[C@H](CCC(=O)OC(C)(C)C)NC(=O)c1ccc(-c2ccccc2)cc1)c1ccccc1` (stereo partly drawn) [Example 8SSSSS, tert-butyl N^2-(biphenyl-4-ylcarbonyl)-N^1-(1-Phenylethyl)-L-α-glutaminate], for which the IC50 worked out at 2470 nM in experiment [1] (Table 2) and 208 nM in experiment [2] (Table 2).

`CC(C)(Cc1ccc(F)cc1)NC(=O)[C@H](CCC(=O)O)NC(=O)c1ccc(-c2ccc(F)c(Cl)c2)cc1` [Example 8SSSSSSS, N^2-[(3′-chloro-4′-fluorobiphenyl-4-yl)carbonyl]-N-[2-(4-fluorophenyl)-1,1-dimethylethyl]-L-α-glutamine]: the IC50 was determined as 230 nM in experiment [1] (Table 3) and 57 nM in experiment [2] (Table 3). Also, the Ki came to 356 nM in experiment [1] (Table 3, read-out: Ki Agg2) and 22 nM in experiment [2] (Table 3, read-out: Ki Agg1).

As to `O=C(O)CC[C@H](NC(=O)c1ccc(Oc2ccccc2)cc1)C(=O)NCCCCCCO` [Example 8TTTT, N^1-(6-hydroxyhexyl)-N^2-(4-phenoxybenzoyl)-L-α-glutamine], the concentration for half-maximal inhibition (IC50) in experiment [1] (Table 2) was over 22000 nM; in experiment [2] (Table 2) it was over 17000 nM.

As to `C[C@@H](NC(=O)[C@H](CCC(=O)O)NC(=O)c1ccc(-c2ccccc2)cc1)c1ccc(F)cc1` [Example 8TTTTT, N^2-(biphenyl-4-ylcarbonyl)-N^1-[(1R)-1-(4-fluorophenyl)ethyl]-L-α-glutamine], the IC50 in experiment [1] (Table 2) was 2010 nM; in experiment [2] (Table 2) it was 389 nM.

On to `Cc1cccc(CNC(=O)[C@H](CCC(=O)O)NC(=O)c2ccc(-c3cccc(CBr)c3)cc2)c1` [Example 8TTTTTTT, N^2-{[3′-(bromomethyl)biphenyl-4-yl]carbonyl}-N-(3-methylbenzyl)-L-α-glutamine], for which the inhibition at 11 µM in experiment [1] (Table 3, at 11000 (nM), read-out: Agg 2 % at concentration) is 20%. The IC50 in experiment [2] (Table 3) was determined as 707 nM.

`O=C(O)CC[C@H](NC(=O)C1c2ccccc2-c2ccccc21)C(=O)NCCCCCCO` [Example 8UUUU, N^2-(9H-fluoren-9-ylcarbonyl)-N^1-(6-hydroxyhexyl)-L-α-glutamine]: the IC50 is about 67000 nM in experiment [1] (Table 2) and over 17000 nM in experiment [2] (Table 2).

Consider `C[C@@H](NC(=O)[C@H](CCC(=O)O)NC(=O)c1ccc(-c2ccccc2)cc1)c1ccccc1` [Example 8UUUUU, N^2-(biphenyl-4-ylcarbonyl)-N^1-[(1R)-1-phenylethyl]-L-α-glutamine], for which the IC50 in experiment [1] (Table 2) came to 2120 nM; in experiment [2] (Table 2) it was 317 nM.
